# Assay results from patent US6900219B2, “ABCA-1 elevating compounds” (CV Therapeutics, Inc., priority 2002, dated 2005).
# Test system: ABCA-1 gene
# Assay: compounds tested and found to elevate cellular expression of the ABCA-1 gene (Examples 1-6; test not named)
# Format: cell-based
# Experimental: Activity testing is conducted as described in those patents and patent applications referenced above, and in the Examples below, and by methods apparent to one skilled in the art.
row,Structure (SMILES),cellular expression of the ABCA-1 gene
1,O=C(Nc1nc2c(Cl)cccc2s1)c1cccs1 [N-(4-chlorobenzothiazol-2-yl)-2-thienylcarboxamide],elevate cellular expression of the ABCA-1 gene
2,CCCc1c(C(=O)Nc2nc3c(Cl)cccc3s2)cnn1-c1ccc(Cl)cc1 [N-(4-chlorobenzothiazol-2-yl)[1-(4-chlorophenyl)-5-propylpyrazol-4-yl]carboxamide],elevate cellular expression of the ABCA-1 gene
3,O=C(Nc1ccc(Cl)cc1)c1ccc2ccccc2c1 [N-(4-chlorophenyl)-2-naphthylcarboxamide],elevate cellular expression of the ABCA-1 gene
4,CCOc1ccc(NC(=O)Nc2ccc(Cl)cc2)cc1 [N-(4-ethoxyphenyl)[(4-chlorophenyl)amino]carboxamide],elevate cellular expression of the ABCA-1 gene
5,O=C(Nc1ccc(F)cc1)c1cc2ccccc2oc1=O [N-(4-fluorophenyl)(2-oxochromen-3-yl)carboxamide],elevate cellular expression of the ABCA-1 gene
6,"Cc1ccc(NC(=O)Oc2ccc(C3=NCCS3)cc2)cc1 [N-(4-methylphenyl)(4-(1,3-thiazolin-2-yl)phenoxy)carboxamide]",elevate cellular expression of the ABCA-1 gene
7,"Cc1cc(C)c2ccc(NC(=O)c3ccc(Cl)cc3)nc2n1 [N-(5,7-dimethylpyridino[3,2-e]pyridin-2-yl)(4-chlorophenyl)carboxamide]",elevate cellular expression of the ABCA-1 gene
8,"O=C(Cc1cccs1)Nc1ncc(-c2ccccc2)s1 [N-(5-phenyl(1,3-thiazol-2-yl))-2-(2-thienyl)acetamide]",elevate cellular expression of the ABCA-1 gene
9,"O=C(Nc1ncc(-c2ccccc2)s1)c1ccccn1 [N-(5-phenyl(1,3-thiazol-2-yl))-2-pyridylcarboxamide]",elevate cellular expression of the ABCA-1 gene
10,"O=C(Nc1ncc(-c2ccccc2)s1)c1cccc(C(F)(F)F)c1 [N-(5-phenyl(1,3-thiazol-2-yl))[3-(trifluoromethyl)phenyl]carboxamide]",elevate cellular expression of the ABCA-1 gene
11,"O=C(Nc1ncc(-c2ccccc2)s1)c1ccc(OC(F)(F)F)cc1 [N-(5-phenyl(1,3-thiazol-2-yl))[4-(trifluoromethoxy)phenyl]carboxamide]",elevate cellular expression of the ABCA-1 gene
12,N#Cc1cccc(C(=O)Nc2nc3ccc(Cl)cc3s2)c1 [N-(6-chlorobenzothiazol-2-yl)(3-cyanophenyl)carboxamide],elevate cellular expression of the ABCA-1 gene
13,CCOc1ccc2nc(NC(=O)Nc3ccccc3)sc2c1 [N-(6-ethoxybenzothiazol-2-yl)(phenylamino)carboxamide],elevate cellular expression of the ABCA-1 gene
14,CCOc1ccc2nc(NC(=O)CC)sc2c1 [N-(6-ethoxybenzothiazol-2-yl)propanamide],elevate cellular expression of the ABCA-1 gene
15,O=C(c1ccc(Br)cc1)N(CCc1ccccc1)Cc1c2ccccc2cc2ccccc12 [N-(9-anthrylmethyl)(4-bromophenyl)-N-(2-phenylethyl)carboxamide],elevate cellular expression of the ABCA-1 gene
16,CCOc1ccc(C(=O)N(Cc2c3ccccc3cc3ccccc23)C(=O)Nc2ccccc2F)cc1 [N-(9-anthrylmethyl)(4-ethoxyphenyl)-N-{[(2-fluorophenyl)amino]carbonyl}-carboxamide],elevate cellular expression of the ABCA-1 gene
17,COc1ccc(C(=O)N(CCc2ccccc2)Cc2c3ccccc3cc3ccccc23)cc1 [N-(9-anthrylmethyl)(4-methoxyphenyl)-N-(2-phenylethyl)carboxamide],elevate cellular expression of the ABCA-1 gene
18,CCc1ccc(N(Cc2c3ccccc3cc3ccccc23)C(=O)Nc2ccccc2F)cc1 [N-(9-anthrylmethyl)-N-(4-ethylphenyl)[(2-fluorophenyl)amino]carboxamide],elevate cellular expression of the ABCA-1 gene
19,CCn1c2ccccc2c2cc(NC(=O)c3ccc(F)cc3)ccc21 [N-(9-ethylcarbazol-3-yl)(4-fluorophenyl)carboxamide],elevate cellular expression of the ABCA-1 gene
20,CCn1c2ccccc2c2cc(NC(=O)c3ccc(OC)cc3)ccc21 [N-(9-ethylcarbazol-3-yl)(4-methoxyphenyl)carboxamide],elevate cellular expression of the ABCA-1 gene

row,Structure (SMILES),cellular expression of the ABCA-1 gene
1,CCn1c2ccccc2c2cc(NC(=O)c3ccc(C)cc3)ccc21 [N-(9-ethylcarbazol-3-yl)(4-methylphenyl)carboxamide],elevate cellular expression of the ABCA-1 gene
2,CCCCCCCCCCCC(=O)N(/C=C/c1ccccc1)c1ccc(CC)cc1 [N-((1E)-2-phenylvinyl)-N-(4-ethylphenyl)dodecanamide],elevate cellular expression of the ABCA-1 gene
3,CCc1ccc(C(=O)N(C/C=C/c2ccccc2)c2ccc(Br)cc2)cc1 [N-((2E)-3-phenylprop-2-enyl)-N-(4-bromophenyl)(4-ethylphenyl)carboxamide],elevate cellular expression of the ABCA-1 gene
4,"O=C(NCCc1ccccc1F)c1ccc2oc(N3CCCN(C(=O)Cc4ccc(C(F)(F)F)cc4)CC3)nc2c1 [N-[2-(2-fluorophenyl)ethyl][2-(4-{2-[4-(trifluoromethyl)phenyl]acetyl}(1,4-diazaperhydroepinyl))benzoxazol-5-yl]carboxamide]",elevate cellular expression of the ABCA-1 gene
5,"O=C(NCCc1ccccc1F)c1ccc2oc(N3CCCN(C(=O)CCc4c[nH]c5ccccc45)CC3)nc2c1 [N-[2-(2-fluorophenyl)ethyl]{2-[4-(3-indol-3-ylpropanoyl)(1,4-diazaperhydroepinyl)]benzoxazol-5-yl}carboxamide]",elevate cellular expression of the ABCA-1 gene
6,"COc1ccc(CCN(Cc2ccc(C(C)(C)C)cc2)C(=O)c2ccco2)cc1OC [N-[2-(3,4-dimethoxyphenyl)ethyl]-N-{[4-(tert-butyl)phenyl]methyl}-2-furylcarboxamide]",elevate cellular expression of the ABCA-1 gene
7,"COc1ccc(CN(CCc2ccc(OC)c(OC)c2)C(=O)C2CC2)cc1 [N-[2-(3,4-dimethoxyphenyl)ethyl]cyclopropyl-N-[(4-methoxyphenyl)methyl]-carboxamide]",elevate cellular expression of the ABCA-1 gene
8,O=C(CNC(=O)c1ccccc1F)c1ccc(Cl)cc1 [N-[2-(4-chlorophenyl)-2-oxoethyl](2-fluorophenyl)carboxamide],elevate cellular expression of the ABCA-1 gene
9,CC(c1nc2ccccc2c(=O)n1-c1ccc2ccccc2c1)N(CCN(C)C)C(=O)Nc1cccc(C#N)c1 (stereo not shown) [N-[2-(dimethylamino)ethyl][(3-cyanophenyl)amino]-N-[(3-(2-naphthyl)-4-oxo(3-hydroquinazolin-2-yl))ethyl]carboxamide],elevate cellular expression of the ABCA-1 gene
10,COc1cccc(NC(=O)N(CCN(C)C)C(C)c2nc3ccccc3c(=O)n2-c2ccc3ccccc3c2)c1 (stereo not shown) [N-[2-(dimethylamino)ethyl][(3-methoxyphenyl)amino]-N-[(3-(2-naphthyl)-4-oxo(3-hydroquinazolin-2-yl))ethyl]carboxamide],elevate cellular expression of the ABCA-1 gene
11,"O=C(Nc1nc(-c2ccc(Cl)cc2)cs1)c1ccc(-c2ccccc2)cc1 [N-[4-(4-chlorophenyl)(1,3-thiazol-2-yl)](4-phenylphenyl)carboxamide]",elevate cellular expression of the ABCA-1 gene
12,"O=C(Nc1nc(-c2ccc(Cl)cc2)cs1)c1ccc(C(F)(F)F)cc1F [N-[4-(4-chlorophenyl)(1,3-thiazol-2-yl)][2-fluoro-4-(trifluoromethyl)phenyl]-carboxamide]",elevate cellular expression of the ABCA-1 gene
13,"O=C(Nc1nc(-c2ccc(Cl)cc2)cs1)c1cccc(C(F)(F)F)c1 [N-[4-(4-chlorophenyl)(1,3-thiazol-2-yl)][3-(trifluoromethyl)phenyl]carboxamide]",elevate cellular expression of the ABCA-1 gene
14,"O=C(Nc1nc(-c2ccc(Cl)cc2)cs1)c1ccc(OC(F)(F)F)cc1 [N-[4-(4-chlorophenyl)(1,3-thiazol-2-yl)][4-(trifluoromethoxy)phenyl]carboxamide]",elevate cellular expression of the ABCA-1 gene
15,"O=C(Nc1nc(-c2ccc(Cl)cc2)cs1)C1CCCC1 [N-[4-(4-chlorophenyl)(1,3-thiazol-2-yl)]cyclopentylcarboxamide]",elevate cellular expression of the ABCA-1 gene
16,"Cc1cc(C)c2oc(-c3ccc(NC(=O)c4ccccc4Br)cc3)nc2c1 [N-[4-(5,7-dimethylbenzoxazol-2-yl)phenyl](2-bromophenyl)carboxamide]",elevate cellular expression of the ABCA-1 gene
17,Cc1ccc2nc(-c3ccc(NC(=O)c4ccccc4C)cc3)sc2c1 [N-[4-(6-methylbenzothiazol-2-yl)phenyl](2-methylphenyl)carboxamide],elevate cellular expression of the ABCA-1 gene
18,Cc1ccc2nc(-c3ccc(NC(=O)Cc4cccs4)cc3)sc2c1 [N-[4-(6-methylbenzothiazol-2-yl)phenyl]-2-(2-thienyl)acetamide],elevate cellular expression of the ABCA-1 gene
19,"CCN(CC)CCCC(C)NC(=O)c1cnn(-c2nc(-c3cccc(OC)c3)cs2)c1C (stereo not shown) [N-[4-(diethylamino)-1-methylbutyl]{1-[4-(3-methoxyphenyl)(1,3-thiazol-2-yl)]-5-methylpyrazol-4-yl}carboxamide]",elevate cellular expression of the ABCA-1 gene
20,"CCc1c(C(=O)NC(C)CCCN(CC)CC)cnn1-c1nc(-c2ccc(Br)cc2)cs1 (stereo not shown) [N-[4-(diethylamino)-1-methylbutyl]{1-[4-(4-bromophenyl)(1,3-thiazol-2-yl)]-5-ethylpyrazol-4-yl}carboxamide]",elevate cellular expression of the ABCA-1 gene
